Patent publication US20070066608A1, “Novel indole derivatives with an improved antipsychotic activity” (priority 2003, published 2007)

Legend:
[1] = target: T1, Human Dopamine D2L receptor (Homo sapiens, UniProt P14416); assay: Radioligand binding experiment for dopamine D2 receptor (hD2), [3H]Spiperone; settings: membranes of D2L receptor-transfected CHO cells, read-out: pIC50 D2 (converted)
T1 construct: expressed in transfected cells; host or cells: CHO cells
Experimental: (§1) The interaction of the compounds of Formula (I) with dopamine-receptors, h5HT-transporter and h5HT1A receptor was assessed in in vitro radioligand binding experiments. In general, a low concentration of a radioligand with a high binding affinity for a particular receptor or transporter is incubated with a sample of a tissue preparation enriched in a particular receptor or transporter or with a preparation of cells expressing cloned human receptors in a buffered medium. During the incubation, the radioligand binds to the receptor or transporter. When equilibrium of binding is reached, the receptor bound radioactivity is separated from the non-bound radioactivity, and the receptor- or transporter-bound activity is counted The interaction of the test compounds with the receptor is assessed in competition binding experiments. Various concentrations of the test compound are added to the incubation mixture containing the receptor- or transporter preparation and the radioligand. The test compound in proportion to its binding affinity and its concentration inhibits binding of the radioligand.
Human Dopamine D2L receptor-transfected CHO cells were collected by scraping into ice-cold Tris-HCl buffer ([…], pH 7.4). The suspension was centrifuged (23 500×g, 10 min, 4° C.) and pellets stored at −70° C. until require. They were then thawed and briefly homogenised using an Ultra-Turrax T25 homogeniser prior to dilution to an appropriate protein concentration optimised for specific and non-specific binding. [^3H]Spiperone (NEN, specific activity˜70 Ci/mmol) was diluted in Tris-HCl assay buffer containing NaCl, CaCl2, MgCl2, KCI (50, 120, 2, 1, and 5 mM respectively, adjusted to pH 7.7 with HCl) at a concentration of 2 nmol/L. Prepared radioligand (50 μl) was then incubated (30 min, 37° C.) with membrane preparations pre-diluted to an appropriate protein concentration (400 μl), and with 50 μl of either the 10% DMSO control, Butaclamol (10^−6 mol/L final concentration), or compound of interest. Membrane-bound activity was detected by filtration through a Packard Filtermate harvester onto Unifilterplates, washing with ice-old Tris-HCl buffer (50 mM; pH8.0; 3×4 ml). Filters were allowed to dry before adding scintillation fluid and counting in a Topcount scintillation counter. % Specific bound and competition binding curves were calculated using S-Plus software (Insightful).

Human 5HT1A receptor = target: T2, Human 5HT1A receptor (Homo sapiens, UniProt P08908); assay: Binding experiment for 5-HT1A receptor, [3H]8OHDPAT; settings: membranes of 5HT1A receptor-transfected L929 cells, read-out: pIC50 5HT1A (converted)
T2 construct: expressed in transfected cells; host or cells: L929 cells (stably transfected)
T2 sequence (P08908 1-422): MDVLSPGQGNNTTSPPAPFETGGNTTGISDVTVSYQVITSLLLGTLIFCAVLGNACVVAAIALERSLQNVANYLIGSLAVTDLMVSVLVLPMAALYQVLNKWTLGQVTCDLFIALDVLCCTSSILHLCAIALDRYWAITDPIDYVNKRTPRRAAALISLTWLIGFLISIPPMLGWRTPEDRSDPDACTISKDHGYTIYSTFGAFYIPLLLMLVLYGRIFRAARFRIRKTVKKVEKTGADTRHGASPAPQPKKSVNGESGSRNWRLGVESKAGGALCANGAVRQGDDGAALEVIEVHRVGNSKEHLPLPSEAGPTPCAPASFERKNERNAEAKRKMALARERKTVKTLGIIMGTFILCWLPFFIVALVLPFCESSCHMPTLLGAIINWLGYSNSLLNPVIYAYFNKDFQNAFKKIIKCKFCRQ
Experimental: as §1
Human 5HT1A receptor-transfected L929 cells were collected by scraping into ice-cold Tris-HCl buffer (50 mM, pH 7.4). The suspension was centrifuged (23 500×g, 10 min, 4° C.) and pellets stored at −70° C. until required. They were then thawed and briefly homogenised using an Ultra-Turrax T25 homogeniser prior to dilution to an appropriate protein concentration optimised for specific and non-specific binding. [^3H]8OHDPAT (NEN, specific activity 127 Ci/mmol) was diluted in Tris-HCl assay buffer containing CaCl2 (50 mM and 4 mM, respectively; pH 7.7) at a concentration of 5 nmol/L. Prepared radioligand (50 μl) was then incubated (30 min, 37° C.) with membrane preparations from L929 cells stably-transfected with the h5HT1A gene construct (400 μl) and with 50 μl of either the 10% DMSO control, spiroxatrine (10^−6 mol/L final concentration), or compound of interest. Membrane-bound activity was detected by filtration through a Packard Filtermate harvester onto Unifaltemplates, washing with ice-cold Tris-HCI buffer (3×4 ml), followed by drying. Scintillation fluid was added and membranes were counted in a Topcount scintillation counter. % Specific bound and competition binding curves were calculated using S-Plus software (Insightful).

[2] = target: T3, Human Dopamine D4 receptor (Homo sapiens, UniProt P21917); assay: Radioligand binding experiment for dopamine D4 receptor (hD4), [125I]Spiperone; settings: membranes of D4 receptor-transfected Sf9 cells, read-out: pIC50 D4 (converted)
T3 construct: expressed in transfected cells; host or cells: Sf9 cells
T3 sequence (P21917 1-419): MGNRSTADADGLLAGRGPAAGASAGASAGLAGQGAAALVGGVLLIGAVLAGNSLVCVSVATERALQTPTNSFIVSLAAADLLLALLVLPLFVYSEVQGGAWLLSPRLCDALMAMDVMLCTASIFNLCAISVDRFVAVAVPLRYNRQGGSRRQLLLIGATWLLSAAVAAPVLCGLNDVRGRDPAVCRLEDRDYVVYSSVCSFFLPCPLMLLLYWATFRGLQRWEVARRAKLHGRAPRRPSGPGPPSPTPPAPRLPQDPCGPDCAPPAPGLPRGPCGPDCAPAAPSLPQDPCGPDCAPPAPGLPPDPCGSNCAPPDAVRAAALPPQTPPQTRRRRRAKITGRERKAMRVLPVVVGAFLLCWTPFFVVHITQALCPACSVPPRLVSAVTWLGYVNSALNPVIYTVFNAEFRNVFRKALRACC
Experimental: as §1, with “The test compound in proportion to its binding affinity and its concentration inhibits binding of the radioligand.” left out
Human Dopamine D4 receptor-transfected Sf9 cells were collected by scraping into ice-cold Tris-HCl buffer (50 mM, pH 7.4). […] Filters were allowed to dry before adding scintillation fluid and counting in a Topcount scintillation counter. % Specific bound and competition binding curves were calculated using S-Plus software (Insightful).

human 5HT transporter = target: T4, human 5HT transporter (Homo sapiens, UniProt P31645); assay: Binding experiment for 5-HT transporter, [3H]Paroxetine; settings: 5HT transporter-transfected HEK cells, [3H]Paroxetine binding; read-out: pIC50 5HT reuptake inhibition (converted)
T4 construct: host or cells: HEK cells
T4 sequence (P31645 whole entry): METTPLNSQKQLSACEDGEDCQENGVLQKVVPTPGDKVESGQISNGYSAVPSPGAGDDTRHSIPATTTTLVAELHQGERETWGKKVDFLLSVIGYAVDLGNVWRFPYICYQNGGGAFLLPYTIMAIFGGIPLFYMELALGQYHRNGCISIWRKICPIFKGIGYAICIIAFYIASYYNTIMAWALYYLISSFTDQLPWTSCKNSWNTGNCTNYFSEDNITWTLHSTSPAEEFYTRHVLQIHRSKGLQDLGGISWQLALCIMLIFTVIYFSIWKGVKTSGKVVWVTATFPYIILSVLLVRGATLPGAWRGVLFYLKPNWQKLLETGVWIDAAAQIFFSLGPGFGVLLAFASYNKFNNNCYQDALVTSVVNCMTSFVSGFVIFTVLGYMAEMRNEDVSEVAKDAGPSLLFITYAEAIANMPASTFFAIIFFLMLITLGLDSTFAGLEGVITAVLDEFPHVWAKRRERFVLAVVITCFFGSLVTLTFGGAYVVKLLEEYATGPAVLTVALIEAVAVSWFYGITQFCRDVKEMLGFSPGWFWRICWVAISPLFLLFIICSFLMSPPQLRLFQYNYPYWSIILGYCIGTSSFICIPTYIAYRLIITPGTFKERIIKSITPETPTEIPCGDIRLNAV
Experimental: as §1
Frozen human 5HT transporter-transfected HEK cells (Perkin Elmer, Brussels) were thawed and briefly homogenised using an Ultra-Turrax T25 homogeniser prior to dilution to an appropriate protein concentration optimised for specific and non-specific binding. [^3H]Paroxetine (NEN, specific activity 20 Ci/mmol) was diluted in Tris-HCl assay buffer containing NaCl and KCl (50 mM 120 mM and 5 mM, respectively; pH 7.4) at a concentration of 5 nmol/L. Prepared radioligand (25 μl) was then incubated (60 min, 25° C.) with membrane preparations (200 μl) and with 25 μl of either 10% DMSO control, Imipramine (10^−6 mol/L final concentration), or compound of interest Membrane-bound activity was detected by filtration through a Packard Filtermate harvester onto Unifilterplates pre-soaked in 0.1% PEI, washing with ice-cold assay buffer (3×4 ml). Filters were dried prior to addition of scintillation fluid and then counting in a Topcount scintillation counter. % Specific bound and competition binding curves were calculated using S-Plus software (Insightful).

T1 sequence (P14416 whole entry): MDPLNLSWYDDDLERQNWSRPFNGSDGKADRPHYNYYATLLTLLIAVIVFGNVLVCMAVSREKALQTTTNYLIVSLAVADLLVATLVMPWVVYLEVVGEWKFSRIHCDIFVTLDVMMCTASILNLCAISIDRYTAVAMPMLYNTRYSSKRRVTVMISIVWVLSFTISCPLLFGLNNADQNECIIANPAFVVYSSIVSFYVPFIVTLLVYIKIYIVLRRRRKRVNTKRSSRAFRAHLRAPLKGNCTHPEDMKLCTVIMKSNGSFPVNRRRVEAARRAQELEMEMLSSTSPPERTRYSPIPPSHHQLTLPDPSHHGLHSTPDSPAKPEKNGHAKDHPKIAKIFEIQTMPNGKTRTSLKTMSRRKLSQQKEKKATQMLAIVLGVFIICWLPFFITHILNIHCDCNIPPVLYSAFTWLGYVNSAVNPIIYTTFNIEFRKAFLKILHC

Fc1ccc2[nH]cc(C3=CCN(CC4COc5ccncc5O4)CC3)c2c1 (stereo not shown) [Compound 4]
IC50 [1]: 158 nM
IC50 (Human 5HT1A receptor): 126 nM
IC50 [2]: 50.1 nM
IC50 (human 5HT transporter): 50.1 nM
